Common to all, as to type: functional
The test system of assay [1] is Candida albicans. Description: Antifungal activity against Candida albicans ATCC SC5314 measured after 24 hrs by broth microdilution assay. On the technique in general: Broth dilution looks for growth in wells or tubes with falling amounts of substance.
Another assay has as its system Cryptococcus neoformans. Description: Antifungal activity against Cryptococcus neoformans CMGCC2.3161 measured after 72 hrs by broth microdilution assay.
For another assay, the system named is Nakaseomyces glabratus. Description: Antifungal activity against Candida glabrata measured after 24 hrs by broth microdilution assay.
Assay [2] has as its system Candida albicans. Description: Antifungal activity against fluconazole-resistant Candida albicans 632 assessed as inhibition of microbial growth after 24 hrs by broth microdilution method.
For assay [3], the system named is Candida albicans. Put plainly: Antifungal activity against fluconazole-resistant Candida albicans 901 assessed as inhibition of microbial growth after 24 hrs by broth microdilution method.
In another assay the test system is [Candida] zeylanoides. Put plainly: Antifungal activity against Candida zeylanoides CMGCC2.3739 measured after 24 hrs by broth microdilution assay. Conditions: Dujonia zeylanoides.
The subject of assay [4] is Candida albicans. Put plainly: Antifungal activity against fluconazole-resistant Candida albicans CaR assessed as inhibition of microbial growth after 24 hrs by broth microdilution method.
Assay [5] relates to Candida albicans. Put plainly: Antifungal activity against fluconazole-resistant Candida albicans 904 assessed as inhibition of microbial growth after 24 hrs by broth microdilution method.
For another assay, the system named is Pichia kudriavzevii. Description: Antifungal activity against Candida krusei AS2.1045 measured after 24 hrs by broth microdilution assay.
Assay [6] has as its system Candida albicans. Put plainly: Antifungal activity against fluconazole-resistant Candida albicans 17# assessed as inhibition of microbial growth after 24 hrs by broth microdilution method.
In a further assay the test system is Candida parapsilosis. Description: Antifungal activity against Candida parapsilosis ATCC 22019 measured after 24 hrs by broth microdilution assay. The note with it: Lodderomyces parapsilosis.
The test system of assay [7] is Candida albicans. Description: Antifungal activity against Candida albicans CPCC400616 measured after 24 hrs by broth microdilution assay.
Assay [8] concerns Candida albicans. Put plainly: Potency index, ratio of fluconazole MIC to test compound MIC for Candida albicans CPCC400616 measured after 24 hrs by broth microdilution assay.
The test system of another assay is Aspergillus fumigatus. Put plainly: Antifungal activity against Aspergillus fumigatus CMGCC3.7795 measured after 72 hrs by broth microdilution assay.

SMILES strings stand for the structures. Converted amounts (≈) assume the structure as drawn.

The term MIC denotes the least concentration at which growth counts as inhibited.

Turning to `CCc1ccc([Se]C(Cn2ccnc2)c2ccc(Cl)cc2Cl)cc1` (stereo not drawn), the MIC in the assay with Candida albicans [1] was determined as 0.03 µg/mL (≈ 0.0707 µM); against Cryptococcus neoformans it was 0.5 µg/mL (≈ 1.18 µM); in the assay on Nakaseomyces glabratus, 0.13 µg/mL (≈ 0.306 µM); with Candida albicans [2], 4 µg/mL; in the assay with Candida albicans [3] it was 4 µg/mL; in [Candida] zeylanoides, 0.5 µg/mL (≈ 1.18 µM). For the same compound, the MIC in the assay on Candida albicans [4] was found to be 8 µg/mL; in the assay on Candida albicans [5], 15 µg/mL; in the assay with Pichia kudriavzevii, 0.06 µg/mL (≈ 0.141 µM); in the assay with Candida albicans [6] it was 8 µg/mL; against Candida parapsilosis, 1 µg/mL (≈ 2.36 µM); in the assay on Candida albicans [7], 0.5 µg/mL (≈ 1.18 µM). For the same compound, in the assay on Aspergillus fumigatus, the minimal inhibitory concentration (MIC) turned out to be 4 µg/mL (≈ 9.43 µM). Also, the Ratio in the assay with Candida albicans [8] was 8.
Take `COc1cccc([Se]C(Cn2ccnc2)c2ccc(F)cc2F)c1` (stereo not drawn): the minimal inhibitory concentration (MIC) in the assay on Candida albicans [1] came to 0.13 µg/mL (≈ 0.331 µM); in the assay on Cryptococcus neoformans, 0.5 µg/mL (≈ 1.27 µM); against Nakaseomyces glabratus, 0.5 µg/mL (≈ 1.27 µM); with Candida albicans [2], 1 µg/mL; in the assay with Candida albicans [3], 4 µg/mL; in assay [Candida] zeylanoides, 1 µg/mL (≈ 2.54 µM). Besides, the MIC was determined as 2 µg/mL with Candida albicans [4]; 8 µg/mL with Candida albicans [5]; 0.13 µg/mL (≈ 0.331 µM) with Pichia kudriavzevii; 4 µg/mL with Candida albicans [6]; 0.25 µg/mL (≈ 0.636 µM) in the assay with Candida parapsilosis; 0.5 µg/mL (≈ 1.27 µM) in the assay on Candida albicans [7]. It took 4 µg/mL (≈ 10.2 µM) to inhibit growth against Aspergillus fumigatus (MIC). The Ratio with Candida albicans [8] was 8.
`Cc1cccc(C)c1[Se]C(Cn1ccnc1)c1ccc(Cl)cc1Cl` (stereo not drawn): the MIC was 0.06 µg/mL (≈ 0.141 µM) against Candida albicans [1]; 0.5 µg/mL (≈ 1.18 µM) with Cryptococcus neoformans; 0.13 µg/mL (≈ 0.306 µM) with Nakaseomyces glabratus; 8 µg/mL in the assay on Candida albicans [2]; 16 µg/mL in the assay on Candida albicans [3]; 4 µg/mL (≈ 9.43 µM) in assay [Candida] zeylanoides. Moreover, the MIC turned out to be 4 µg/mL with Candida albicans [4]; 8 µg/mL with Candida albicans [5]; 2 µg/mL (≈ 4.71 µM) in the assay on Pichia kudriavzevii; 4 µg/mL with Candida albicans [6]; 0.5 µg/mL (≈ 1.18 µM) in the assay with Candida parapsilosis; 0.13 µg/mL (≈ 0.306 µM) against Candida albicans [7]. The same compound gave a minimal inhibitory concentration (MIC) in the assay on Aspergillus fumigatus of 8 µg/mL (≈ 18.9 µM). In addition, in the assay with Candida albicans [8], the Ratio stood at 8.
For the compound `Cc1cccc([Se]C(Cn2ccnc2)c2ccc(F)cc2F)c1` (stereo not drawn), the MIC in the assay with Candida albicans [1] was 0.03 µg/mL (≈ 0.0795 µM); in the assay on Cryptococcus neoformans, 0.25 µg/mL (≈ 0.663 µM); in the assay on Nakaseomyces glabratus it was 1 µg/mL (≈ 2.65 µM); in the assay with Candida albicans [2], 0.5 µg/mL; with Candida albicans [3], 4 µg/mL; in [Candida] zeylanoides it was 0.5 µg/mL (≈ 1.33 µM). The minimum inhibitory concentration (MIC) with Candida albicans [4] came to 4 µg/mL; in the assay with Candida albicans [5], 1 µg/mL; against Pichia kudriavzevii it was 0.06 µg/mL (≈ 0.159 µM); in the assay on Candida albicans [6], 8 µg/mL; against Candida parapsilosis, 0.25 µg/mL (≈ 0.663 µM); with Candida albicans [7] it was 0.25 µg/mL (≈ 0.663 µM). Moreover, 8 µg/mL (≈ 21.2 µM) was the least that counted as inhibitory in the assay with Aspergillus fumigatus (MIC). Further, in the assay with Candida albicans [8], the Ratio is on record as 8.
`CCc1ccc([Se]C(Cn2ccnc2)c2ccc(F)cc2F)cc1` (stereo not drawn): the minimal inhibitory concentration (MIC) in the assay with Candida albicans [1] was 0.13 µg/mL (≈ 0.332 µM); in the assay with Cryptococcus neoformans, 0.03 µg/mL (≈ 0.0767 µM); against Nakaseomyces glabratus it was 0.5 µg/mL (≈ 1.28 µM); in the assay on Candida albicans [2], 1 µg/mL; in the assay with Candida albicans [3], 2 µg/mL; in [Candida] zeylanoides it was 0.5 µg/mL (≈ 1.28 µM). The MIC in the assay on Candida albicans [4] came out at 1 µg/mL; in the assay with Candida albicans [5], 8 µg/mL; against Pichia kudriavzevii it was 0.13 µg/mL (≈ 0.332 µM); in the assay with Candida albicans [6], 4 µg/mL; against Candida parapsilosis it was 0.13 µg/mL (≈ 0.332 µM); with Candida albicans [7], 0.13 µg/mL (≈ 0.332 µM). In the assay on Aspergillus fumigatus, the lowest concentration to inhibit growth (MIC) was 8 µg/mL (≈ 20.4 µM). Further, the Ratio in the assay on Candida albicans [8] was 8.
As to `Cc1ccccc1[Se]C(Cn1ccnc1)c1ccc(F)cc1F` (stereo not drawn), the minimal inhibitory concentration (MIC) against Candida albicans [1] came out at 0.02 µg/mL (≈ 0.053 µM); with Cryptococcus neoformans, 0.5 µg/mL (≈ 1.33 µM); against Nakaseomyces glabratus it was 1 µg/mL (≈ 2.65 µM); in the assay with Candida albicans [2], 4 µg/mL; in the assay on Candida albicans [3], 2 µg/mL; in assay [Candida] zeylanoides it was 0.5 µg/mL (≈ 1.33 µM). Further, the minimum inhibitory concentration (MIC) in the assay with Candida albicans [4] stood at 8 µg/mL; in the assay on Candida albicans [5], 1 µg/mL; against Pichia kudriavzevii, 0.02 µg/mL (≈ 0.053 µM); in the assay on Candida albicans [6], 4 µg/mL; against Candida parapsilosis it was 0.13 µg/mL (≈ 0.345 µM); in the assay with Candida albicans [7], 0.13 µg/mL (≈ 0.345 µM). Also, in the assay with Aspergillus fumigatus, the MIC was 8 µg/mL (≈ 21.2 µM). Moreover, in the assay on Candida albicans [8], the Ratio is listed as 8.
`Fc1ccc(C(Cn2ccnc2)[Se]c2ccccc2)c(F)c1` (stereo not drawn): the minimum inhibitory concentration (MIC) in the assay with Candida albicans [1] was 0.02 µg/mL (≈ 0.0551 µM); in the assay on Cryptococcus neoformans, 0.5 µg/mL (≈ 1.38 µM); against Nakaseomyces glabratus, 1 µg/mL (≈ 2.75 µM); with Candida albicans [2], 2 µg/mL; with Candida albicans [3], 2 µg/mL; in assay [Candida] zeylanoides, 0.25 µg/mL (≈ 0.688 µM). Further, the MIC in the assay on Candida albicans [4] was determined as 1 µg/mL; in the assay on Candida albicans [5] it was 1 µg/mL; against Pichia kudriavzevii, 0.25 µg/mL (≈ 0.688 µM); in the assay on Candida albicans [6], 4 µg/mL; against Candida parapsilosis, 0.06 µg/mL (≈ 0.165 µM); in the assay with Candida albicans [7] it was 0.5 µg/mL (≈ 1.38 µM). Moreover, the MIC against Aspergillus fumigatus amounted to 2 µg/mL (≈ 5.51 µM). The Ratio with Candida albicans [8] is recorded as 8.

Source of the values: ChEMBL document CHEMBL4813985, “Lead optimization generates selenium-containing miconazole CYP51 inhibitors with improved pharmacological profile for the treatment of fungal infections” (Eur J Med Chem, 2021).
